According to patent US10314308B2, “Microbiocidal benzoxaboroles” (SYNGENTA PARTICIPATIONS AG, priority 2015, dated 2019):

Experiments:
[1] = tested on: Mycosphaerella Arachidis(Cercospora Arachidicola); assay: Mycosphaerella arachidis (Cercospora arachidicola) / liquid culture (early leaf spot); type: cell-based; settings: PDB potato dextrose broth, 24° C., 4-5 days after application, read-out: disease control (inhibition of growth, photometrically)
Method in brief: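 Growth inhibition was read photometrically 4-5 days post-application, following incubation at 24 °C. Test compounds in DMSO were combined with fungal spores from cryogenic storage suspended in potato dextrose broth.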

[2] = tested on: Botryotinia Fuckeliana(Botrytis Cinerea); assay: Botryotinia fuckeliana (Botrytis cinerea) / liquid culture (gray mould); type: cell-based; settings: Vogels broth, 24° C., 3-4 days after application, read-out: disease control (inhibition of growth, photometrically)
Method: 9 Botryotinia Fuckeliana(Botrytis Cinerea)/Liquid Culture (Gray Mould) Conidia of the fungus from cryogenic storage were directly mixed into nutrient broth (Vogels broth). After placing a DMSO solution of test compound into a 96-well microtiter plate, the nutrient broth containing the fungal spores was added. The test plates were incubated at 24° C. and the inhibition of growth was determined photometrically 3-4 days after application.

[3] = tested on: Sclerotinia Sclerotiorum; assay: Sclerotinia sclerotiorum / liquid culture (cottony rot); type: cell-based; settings: PDB potato dextrose broth, 24° C., 3-4 days after application, read-out: disease control (inhibition of growth, visually)
Method in brief: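 Growth inhibition was read by eye 3-4 days post-application at 24° C. Compounds (DMSO solution) were combined with potato dextrose broth seeded with mycelia fragments from a newly grown liquid culture.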

[4] = tested on: Phytophthora Infestans; assay: whole plant or invertebrate; type: in vivo; settings: in Solanum lycopersicum, foliar, read-out: disease control
[5] = tested on: Fusarium Culmorum; assay: microbe, parasite or virus in culture; type: cell-based; settings: read-out: disease control (inhibition of growth, photometrically)
[6] = tested on: Thanatephorus Cucumeris(Rhizoctonia Solani); assay: Thanatephorus cucumeris (Rhizoctonia solani) / liquid culture (foot rot, damping-off); type: cell-based; settings: PDB potato dextrose broth, 24° C., 3-4 days after application, read-out: disease control (inhibition of growth, photometrically)
Method in brief: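 Photometric growth-inhibition read 3-4 days after treatment at 24° C. Compounds applied from DMSO at 200 ppm, then fungal mycelium fragments in PDB broth added.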

[7] = tested on: Mycosphaerella Graminicola(Septoria Tritici); assay: Mycosphaerella graminicola (Septoria tritici) / liquid culture (Septoria blotch); type: cell-based; settings: Zymoseptoria tritici, PDB potato dextrose broth, 24° C., 4-5 days after application, read-out: disease control (inhibition of growth, photometrically)
Method in brief: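 Growth inhibition measured by photometry 4-5 days post-application, at 24 °C, in liquid culture of spores taken straight from cryogenic storage into potato dextrose broth, with test compound supplied in DMSO.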

[8] = tested on: Glomerella Lagenarium(Colletotrichum Ladenarium); assay: Glomerella lagenarium (Colletotrichum lagenarium) / liquid culture (anthracnose); type: cell-based; settings: PDB potato dextrose broth, 24° C., 3-4 days after application, read-out: disease control (inhibition of growth, photometrically)
Method in brief: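 Compound dissolved in DMSO was combined with potato dextrose broth carrying conidia taken directly from cryogenic storage. Photometric growth inhibition readings were taken after 3–4 days of incubation at 24 °C.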

[9] = tested on: Phaeosphaeria Nodorum (Septoria Nodorum); assay: Phaeosphaeria nodorum (Septoria nodorum) / wheat / leaf disc preventative (glume blotch); type: in vivo; settings: Parastagonospora nodorum, foliar, wheat leaf segments cv Kanzler, inoculated 2 days after application, assessed 5-7 days after application, read-out: disease control
Method in brief: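 Wheat cv Kanzler leaf discs on agar were sprayed with formulated compound, then inoculated with spores 2 days later. Incubation at 20° C, 75% RH, 12/12 h light/dark; percent disease control versus untreated assessed 5-7 days after application.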

[10] = tested on: Pythium Ultimum; assay: Pythium ultimum / liquid culture (seedling damping off); type: cell-based; settings: Globisporangium ultimum, potato dextrose broth, 24° C., 2-3 days after application, read-out: disease control (inhibition of growth, photometrically)
[11] = tested on: Monographella Nivalis(Microdochium Nivale); assay: Monographella nivalis (Microdochium nivale) / liquid culture (foot rot cereals); type: cell-based; settings: PDB potato dextrose broth, 24° C., 4-5 days after application, read-out: disease control (inhibition of growth, photometrically)
Method in brief: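 Growth inhibition measured photometrically after 4-5 days at 24° C. Test compound in DMSO was combined with nutrient broth (PDB) carrying conidia taken directly from cryogenic storage.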

[12] = tested on: Gaeumannomyces Graminis; assay: Gaeumannomyces graminis / liquid culture (take-all of cereals); type: cell-based; settings: PDB potato dextrose broth, 24° C., 4-5 days after application, read-out: disease control (inhibition of growth, photometrically)
Method in brief: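 Liquid-culture growth assay: compound delivered as DMSO solution, then fungal inoculum in potato dextrose broth added. Photometric read of growth inhibition after 4-5 days at 24° C.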

[13] = tested on: Plasmopara Viticola; assay: whole plant or invertebrate; type: in vivo; settings: foliar, read-out: disease control
[14] = tested on: Puccinia Recondita f. sp. Tritici; assay: Puccinia recondita f. sp. tritici / wheat / leaf disc preventative (brown rust); type: in vivo; settings: foliar, wheat leaf segments cv Kanzler, inoculated 1 day after application, assessed 7-9 days after application, read-out: disease control
Method: 3 Puccinia Recondita f. sp. Tritici/Wheat/Leaf Disc Preventative (Brown Rust) Wheat leaf segments cultivated variety (cv) Kanzler were placed on agar in 24-well plates and sprayed with formulated test compound diluted in water. The leaf disks were inoculated with a spore suspension of the fungus 1 day after application. The inoculated leaf segments were incubated at 19° C. and 75% relative humidity under a light regime of 12/12 h (light/dark) in a climate cabinet and the activity of a compound was assessed as percent disease control compared to untreated when an appropriate level of disease damage appears in untreated check leaf segments (7-9 days after application).

With `OB1OCc2cc(F)c(-c3ncno3)cc21` [Compound 29] the inhibition at 20 ppm [1] was ≥ 80%, the inhibition at 20 ppm [2] was ≥ 80% and the inhibition at 20 ppm [3] was ≥ 80%. The pest or weed control at 200 ppm [4] was ≥ 80%, the inhibition at 20 ppm [5] was ≥ 80% and the inhibition at 20 ppm [6] was ≥ 80%. For the same compound, the inhibition at 20 ppm [7] was ≥ 80%, the inhibition at 20 ppm [8] was ≥ 80% and the pest or weed control at 200 ppm [9] was ≥ 80%. For the same compound, the melting point was 204 to 206 °C, the inhibition at 20 ppm [10] was ≥ 80% and the inhibition at 20 ppm [11] was ≥ 80%. For the same compound, the inhibition at 20 ppm [12] was ≥ 80%.
For `Cc1cc(-c2cc3c(cc2F)COB3O)c(C#N)o1` [Compound 56], the inhibition at 20 ppm [1] was ≥ 80%, the pest or weed control at 200 ppm [4] was ≥ 80% and the inhibition at 20 ppm [6] was ≥ 80%. The pest or weed control at 200 ppm [13] was ≥ 80%, the pest or weed control at 200 ppm [14] was ≥ 80% and the inhibition at 20 ppm [10] was ≥ 80%. The inhibition at 20 ppm [11] was ≥ 80% and the inhibition at 20 ppm [12] was ≥ 80%.
With `OB1OCc2cc(F)c(-c3ncon3)cc21` [Compound 97] the inhibition at 20 ppm [1] was ≥ 80%, the inhibition at 20 ppm [2] was ≥ 80% and the inhibition at 20 ppm [3] was ≥ 80%. For the same compound, the pest or weed control at 200 ppm [4] was ≥ 80%, the inhibition at 20 ppm [5] was ≥ 80% and the inhibition at 20 ppm [6] was ≥ 80%. For the same compound, the inhibition at 20 ppm [7] was ≥ 80%, the inhibition at 20 ppm [8] was ≥ 80% and the pest or weed control at 200 ppm [9] was ≥ 80%. For the same compound, the melting point was 226 to 228 °C, the inhibition at 20 ppm [10] was ≥ 80% and the inhibition at 20 ppm [11] was ≥ 80%. For the same compound, the inhibition at 20 ppm [12] was ≥ 80%.
For `OB1OCc2cc(F)c(-c3cnoc3)cc21` [Compound 11], the inhibition at 20 ppm [1] was ≥ 80%, the inhibition at 20 ppm [3] was ≥ 80% and the pest or weed control at 200 ppm [4] was ≥ 80%. The inhibition at 20 ppm [5] was ≥ 80%, the inhibition at 20 ppm [7] was ≥ 80% and the pest or weed control at 200 ppm [9] was ≥ 80%. The melting point was 230 to 232 °C, the inhibition at 20 ppm [10] was ≥ 80% and the inhibition at 20 ppm [11] was ≥ 80%. The inhibition at 20 ppm [12] was ≥ 80%.
In the case of `OB1OCc2cc(Cl)c(-c3nnco3)cc21` [Compound 94], the inhibition at 20 ppm [1] is reported as ≥ 80%, the inhibition at 20 ppm [3] is reported as ≥ 80% and the pest or weed control at 200 ppm [4] is reported as ≥ 80%. The inhibition at 20 ppm [7] was ≥ 80%, the inhibition at 20 ppm [8] was ≥ 80% and the pest or weed control at 200 ppm [9] was ≥ 80%. For the same compound, the melting point was 202 to 204 °C, the inhibition at 20 ppm [10] was ≥ 80% and the inhibition at 20 ppm [12] was ≥ 80%.
